The values below come from publication PMC8879660, “Characterizing the Physicochemical Properties of Two Weakly Basic Drugs and the Precipitates Obtained from Biorelevant Media” (Pharmaceutics, 2022).

What is called pKa is the negative logarithm of the acid dissociation constant. What is called solubility is the concentration that dissolves in the medium under given conditions.

A short description of data set [1]: Equilibrium solubility / dissolution of precipitates and API in pH 6.5 FaSSIF buffer. The class given is physicochemical. To be noted: FaSSIF buffer pH 6.5, 37 °C. The method, then: To estimate the solution properties of different crystal structures in near neutral or slightly acidic environments, the equilibrium solubility of various precipitates and API in the pH 6.5 FaSSIF buffer medium (FaB) was investigated. An excess sample was added to the medium, and the test of equilibrium solubility was performed with the stirring rate of 200 revolutions per minute (rpm) under 37 °C for 24 h. Sample concentration was detected every minute by Pion’s in situ fiber-optic UV dissolution monitoring system. All measurements were performed three times.

The conditions of data set [2]: stated in Materials, source not given; cited from earlier work.
Data set [3] in a line: Equilibrium solubility of API in different media. To be noted: 37 °C, 200 rpm. Format: physicochemical. The method, then:
To select an appropriate method for the preparation of precipitates, the equilibrium solubility of model drugs was firstly investigated in various media, including pH 1.0 HCl solution, pH 5.0, pH 6.5, and pH 8.0 phosphate buffer solution (PBS), fasted state simulated intestinal fluid (FaSSIF, Fa), and fed-state simulated intestinal fluid (FeSSIF, Fe). The excess sample was added to the medium, and the test of equilibrium solubility was performed with the stirring rate of 200 revolutions per minute (rpm) under 37 °C for 24 h. Sample concentration was detected every minute by Pion’s in situ fiber-optic UV dissolution monitoring system (Pion Scientific Instruments, Billerica, MA, USA), a real-time online detector. All measurements were performed in triplicate.

Data set [4] is described as follows: Stirring PAMPA permeability assay of precipitates and API in different donor media. Format: in vitro ADME. The method, then: In order to simulate the permeation of compounds in different crystal structures in the GI tract, the stirring PAMPA method (Pion Inc., Billerica, MA, USA) was used to assess the passive transcellular permeability. The donor and acceptor chambers representing the GI tract and systemic circulation were separated by the artificial membrane (PVDF, polyvinylidenfluoride, 0.45 μm, 0.78 cm^2). The membrane surface was coated with 20 μL of lipid, which was used to simulate the microenvironment of lipids in vivo. Then, 16 mL PBS/FaSSIF/FeSSIF medium with pH 5.0 was added into the donor chamber, and 16 mL sink buffer was added into the acceptor chamber. In order to simulate the redissolution progress of precipitate in the GI tract, a slight excess of crystalline powder was added into the donor chamber. Both chambers were stirred at 200 rpm at 37 °C, and the concentration of each chamber was detected by immersed UV-probes at 320 nm and 340 nm for rivaroxaban and Drug-A, respectively. The flux was defined as the amount of compound passing through the unit area perpendicular to its flow direction in unit time and was calculated by the following equation [31]:(2) J(t)=Ct2−Ct1/A(t2−t1)×V where J(t) is the flux of a compound; Ct is the concentration of compound at t; V is the solution volume of the donor chamber; A is the area of the artificial membrane. […]
(In general: PAMPA measures passive passage across an artificial lipid membrane.)

The nature of data set [5]: Intrinsic dissolution rate (disc method, Mini-IDR). Format: physicochemical. To be noted: same dissolution medium, 37 °C, 200 rpm. The protocol:
The intrinsic dissolution rate (IDR) of compounds with different crystal structures was measured by the disc method based on the literature. About 10 mg of powder was loaded into the Mini-IDR compression system (Pion Inc., Billerica, MA, USA) and compressed at 100 psi (rivaroxaban) and 200 psi (Drug-A) for 1 min to obtain the miniaturized discs with a surface area of 0.071 cm^2. The discs were inserted into stirrer-die assembly and placed into flat-bottomed glass vials for dissolution analysis. At the start of the experiments, the magnetic stirrer was immediately switched on with the speed of 200 rpm, and then 10 mL of preheated (37 °C) dissolution media (FaSSIF buffer medium, FeSSIF buffer medium, FaSSIF medium and FeSSIF medium) were added into the vials at a constant temperature. The concentration was determined directly in the dissolution media every 30 s using an in situ UV probe for 2 h. All experiments were performed in triplicate, and the IDR was calculated with the following equation [30]:(1) IDR=V×dc/dt×1/A where V is the volume of medium in the glass vial; dc/dt is the slope of the straight line from the dissolution profile; A is the surface area of the disc.

Molecules are shown by their SMILES. ≈ marks a conversion by molar mass, not a printed value. Where two headings read alike, the source gives them in different places.

With `O=C(NC[C@H]1CN(c2ccc(N3CCOCC3=O)cc2)C(=O)O1)c1ccc(Cl)s1` [Rivaroxaban], the “Dissolved rate of precipitates compared with API” value in data set [1] was “higher than that of API”. Also, the “Difference in equilibrium solubility between API and precipitates obtained from biorelevant media” value in data set [1] (24 h, precipitates from FaSSIF, 0.5 × FeSSIF, FeSSIF, 2 × FeSSIF) is “no statistical difference”. In addition, in data set [2], the log p was 1.90. The pKa in data set [2] is listed as 13.6. Moreover, the solubility at 24 h in data set [3] (FaSSIF, n = 3, read-out: Solubility of API, FaSSIF) is 6.17 µg/mL (≈ 14.2 µM); in data set [3] (FeSSIF, n = 3, read-out: Solubility of API, FeSSIF), 10.6 µg/mL (≈ 24.3 µM); in data set [3] (pH 1.0 HCl solution, n = 3, read-out: Solubility of API, pH 1.0 HCl), 6.84 µg/mL (≈ 15.7 µM); in data set [3] (pH 5.0 phosphate buffer solution (PBS), aqueous buffer, thermodynamic from solid, pH 5.0 PBS, n = 3, read-out: Solubility of API, pH 5.0 PBS), 4.85 µg/mL (≈ 11.1 µM); in data set [3] (pH 6.5 phosphate buffer solution (PBS), pH 6.5 PBS, n = 3, read-out: Solubility of API, pH 6.5 PBS), 5.85 µg/mL (≈ 13.4 µM); in data set [3] (pH 8.0 phosphate buffer solution (PBS), pH 8.0 PBS, n = 3, read-out: Solubility of API, pH 8.0 PBS), 5.87 µg/mL (≈ 13.5 µM). In data set [4] (FeSSIF in the donor chamber), the “Permeability of API compared with precipitates” value is “larger than that of precipitates obtained from biorelevant media”. Also, the “Permeability in donor chamber containing aqueous medium relative to donor chamber containing biorelevant medium” value in data set [4] (donor pH 5.0 PBS vs biorelevant medium, 37 °C, 200 rpm) is “about 1.92 fold”. The “Influence of crystal structure (API vs precipitates) on intrinsic dissolution rate” value in data set [5] is listed as “significant influence”.
